According to patent US10738028B2, “Spiro three-membered ring, spiro five-membered ring peptide deformylase inhibitor and use thereof in antibacteria and anti-tumor” (priority 2016, dated 2020):

Tests used:
Assay type in all cases: cell-based
[1] = system: Enterococcus faecium (EFM); test: MIC, two-fold agar dilution (CLSI), clinical isolates
In short: (§1)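 CLSI two-fold agar dilution; MIC of test samples read per tested strain.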

[2] = system: methicillin-sensitive Staphylococcus epidermidis (MSSE); test: as above
In short: as §1

[3] = system: methicillin-resistant Staphylococcus aureus (MRSA); test: as above
In short: as §1

[4] = system: methicillin-sensitive Staphylococcus aureus (MSSA); test: as above
In short: as §1

[5] = system: Escherichia coli (including ESBLs, non-ESBLs); test: as above
In short: as §1

[6] = system: Enterococcus faecalis (EFA); test: as above
In short: as §1

[7] = system: Streptococcus pneoumoniae (SPN); test: as above
In short: as §1

[8] = system: Moraxella catarrhalis (BCA); test: as above
In short: as §1

[9] = system: methicillin-resistant Staphylococcus epidermidis (MRSE); test: as above
In short: as §1

[10] = system: HCT-116 colorectal cancer cell line; test: CCK-8 proliferation inhibition; conditions: Homo sapiens, HCT-116, 72 h, concentration of 30 μM; 72 hours; CCK-8; read-out: HCT116 inhibition rate/%
In short: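 Growth inhibition is read by CCK-8 (1:10 dilution) after 72 h of compound exposure. HCT-116 cells grow in McCoy's 5A containing 10% newborn bovine serum at 2000 cells/well, with 1‰ DMSO as vehicle control.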

CCCC[C@H](CC(=O)NO)C(=O)N1CC2(CC2)C[C@H]1C(=O)Nc1cc(C)on1 [Example 56, (S)-5-((R)-2-(2-(hydroxyamino)-2-oxoethyl)hexanoyl)-N-(5-methylisoxazol-3-yl)-5-spiro[2.4]heptane-6-carboxamide]
10%: inhibition at 30 µM [10]
0.125 µg/mL: Anti-bacterial activity (MIC), strain MSSA 15-5 ([4]; clinical isolate MSSA 15-5) | Anti-bacterial activity (MIC), strain MRSE 15-1 ([9]; clinical isolate MRSE 15-1)
> 16 µg/mL: Anti-bacterial activity (MIC), strain ECO+ 15-1 ([5]; clinical isolate ECO+ 15-1) | Anti-bacterial activity (MIC), strain ECO+ 15-2 ([5]; clinical isolate ECO+ 15-2) | Anti-bacterial activity (MIC), strain ECO+ 15-3 ([5]; clinical isolate ECO+ 15-3) | Anti-bacterial activity (MIC), strain ECO+ 15-4 ([5]; clinical isolate ECO+ 15-4) | Anti-bacterial activity (MIC), strain ECO− 15-1 ([5]; clinical isolate ECO− 15-1) | Anti-bacterial activity (MIC), strain ECO− 15-2 ([5]; clinical isolate ECO− 15-2) | Anti-bacterial activity (MIC), strain ECO− 15-3 ([5]; clinical isolate ECO− 15-3) | Anti-bacterial activity (MIC), strain ECO− 15-4 ([5]; clinical isolate ECO− 15-4)
1 µg/mL: Anti-bacterial activity (MIC), strain EFM 15-1 ([1]; clinical isolate EFM 15-1) | Anti-bacterial activity (MIC), strain EFM 15-3 ([1]; clinical isolate EFM 15-3) | Anti-bacterial activity (MIC), strain EFM 15-5 ([1]; clinical isolate EFM 15-5) | Anti-bacterial activity (MIC), strain SPN 16-4 ([7]; clinical isolate SPN 16-4) | Anti-bacterial activity (MIC), strain BCA 14-5 ([8]; clinical isolate BCA 14-5)
2 µg/mL: Anti-bacterial activity (MIC), strain MRSA 15-2 ([3]; clinical isolate MRSA 15-2) | Anti-bacterial activity (MIC), strain MRSA 15-4 ([3]; clinical isolate MRSA 15-4) | Anti-bacterial activity (MIC), strain BCA 14-7 ([8]; clinical isolate BCA 14-7) | Anti-bacterial activity (MIC), strain BCA 14-8 ([8]; clinical isolate BCA 14-8) | Anti-bacterial activity (MIC), strain BCA 14-10 ([8]; clinical isolate BCA 14-10) | Anti-bacterial activity (MIC), strain MRSE 15-2 ([9]; clinical isolate MRSE 15-2)
4 µg/mL: Anti-bacterial activity (MIC), strain EFM 15-2 ([1]; clinical isolate EFM 15-2) | Anti-bacterial activity (MIC), strain EFM 15-4 ([1]; clinical isolate EFM 15-4) | Anti-bacterial activity (MIC), strain EFM 15-6 ([1]; clinical isolate EFM 15-6) | Anti-bacterial activity (MIC), strain BCA 14-1 ([8]; clinical isolate BCA 14-1) | Anti-bacterial activity (MIC), strain BCA 14-4 ([8]; clinical isolate BCA 14-4)
8 µg/mL: Anti-bacterial activity (MIC), strain SPN 16-2 ([7]; clinical isolate SPN 16-2) | Anti-bacterial activity (MIC), strain BCA 14-6 ([8]; clinical isolate BCA 14-6)
0.25 µg/mL: Anti-bacterial activity (MIC), strain MSSE 15-3 ([2]; clinical isolate MSSE 15-3) | Anti-bacterial activity (MIC), strain MRSA 15-1 ([3]; clinical isolate MRSA 15-1) | Anti-bacterial activity (MIC), strain MSSA 15-3 ([4]; clinical isolate MSSA 15-3) | Anti-bacterial activity (MIC), strain MSSA 15-4 ([4]; clinical isolate MSSA 15-4) | Anti-bacterial activity (MIC), strain MSSA 15-6 ([4]; clinical isolate MSSA 15-6) | Anti-bacterial activity (MIC), strain MRSE 15-3 ([9]; clinical isolate MRSE 15-3)
0.06 µg/mL: Anti-bacterial activity (MIC), strain MSSE 15-4 ([2]; clinical isolate MSSE 15-4) | Anti-bacterial activity (MIC), strain MSSE 15-5 ([2]; clinical isolate MSSE 15-5) | Anti-bacterial activity (MIC), strain MSSE 15-6 ([2]; clinical isolate MSSE 15-6)
16 µg/mL: Anti-bacterial activity (MIC), strain EFA 15-1 ([6]; clinical isolate EFA 15-1) | Anti-bacterial activity (MIC), strain EFA 15-2 ([6]; clinical isolate EFA 15-2) | Anti-bacterial activity (MIC), strain EFA 15-3 ([6]; clinical isolate EFA 15-3) | Anti-bacterial activity (MIC), strain EFA 15-4 ([6]; clinical isolate EFA 15-4) | Anti-bacterial activity (MIC), strain EFA 15-5 ([6]; clinical isolate EFA 15-5) | Anti-bacterial activity (MIC), strain EFA 15-6 ([6]; clinical isolate EFA 15-6) | Anti-bacterial activity (MIC), strain EFA 15-9 ([6]; clinical isolate EFA 15-9)
0.5 µg/mL: Anti-bacterial activity (MIC), strain MRSA 15-3 ([3]; clinical isolate MRSA 15-3) | Anti-bacterial activity (MIC), strain MRSE 15-7 ([9]; clinical isolate MRSE 15-7)
